Source: article PMC7180728, “Novel Anthraquinone Compounds Inhibit Colon Cancer Cell Proliferation via the Reactive Oxygen Species/JNK Pathway” (Molecules, 2020)
In brackets after ≈: the same amount, converted by molar mass.

Assays:
JNK = assay: Western blot, phosphorylated and total JNK; format: cell-based, human; conditions: HCT116, western blot
Excerpt: To further elucidate the mechanism by which 8a inhibits proliferation and induces apoptosis of HCT116 cells, the levels of phosphorylated and total JNK protein were examined by western blot analysis. […] Phosphorylation of JNK activated by the ROS pathway results in overexpression of tumor suppressor factors, thereby inducing apoptosis. In addition, JNK phosphorylation is associated with ROS production. To determine whether ROS production contributes to JNK1/2 phosphorylation and its related mechanisms, we blocked 8a-induced ROS production in HCT116 cells and then analyzed the changes in JNK 1/2 phosphorylation by western blotting. […] Furthermore, pre-treatment of cells with NAC reduced the levels of p-JNK induced by 8a.
(§1) The expression of signaling pathway-related proteins was detected by western blot analysis. Cell (1 × 10^6) were plated in 90-mm dishes and treated with 8a for 24 h. The cells were treated with NAC in the same way as in step 4.7. Resuspend the cells in Buffer A (1 mM EDTA, 1 mM PMSF, 0.28 μg/mL apotinin, 50 μg/mL leupeptin, 7 μg/mL pepstain A) and transferred to a 1 mL glass homogenizer and pull up and down 30 times in an ice bath. Cells were collected and centrifuged (1000 g × 10 min, 4 °C). The obtained supernatant and precipitate were the crude cytoplasm and mitochondria, respectively. The cytosolic fraction was transferred to an ultra-ion tube and centrifuged (100,000g × 1 hr, 4 °C), and the resulting supernatant was the purified cytosolic fraction. The mitochondrial pellet was resuspended in Buffer B (1mM EGTA, 1mM PMSF, 0.28 μg/mL apotinin, 50 μg/mL leupeptin, 7 μg/mL pepstain A), centrifuged (10,000g × 10 min, 4 °C), and repeated 3 times. The mitochondria pellet was lysed in cell lysate buffer (1% NP-40, 2 μg/mL aprotinin, 2 μg/mL leupeptin, 1mM EDTA, 1mM Na vanadate). Protein concentrations in the supernatant were determined by using a Minbio BCA protein assay kit. Protein were separated by SDS-PAGE and transferred to a PVDF membrane. The membrane was blocked, and incubated with primary detection antibodies overnight at 4 °C. […]

Bcl-2, Bcl-xL and Bax = assay: Western blot, Bcl-2 family proteins; format: cell-based, human; conditions: HCT116, western blot
Protocol: In addition, the expression of apoptosis-related proteins after 8a treatment was detected by western blot. Previous studies have shown that the Bcl-2 protein family is one of the most interesting oncogene-related proteins in programmed cell death. Therefore, we analyzed the levels of Bcl-2, Bcl-xL and Bax after 24 h of treatment with different concentrations (0, 10, 20, and 40 μg/mL) 8a. […] Moreover, the phosphorylation levels of Bcl-2 and Bcl-xL increased with increasing 8a concentration.
as §1, with “°C. After washing three times with TBS-T, the membranes were incubated with the secondary detection antibody.” for “°C.”

QBC939 = assay: MTT cell proliferation assay, QBC939; format: cell-based; conditions: Homo sapiens, QBC939 cholangiocarcinoma, 48 h
Protocol: (§2) The effects of the synthesized amide anthraquinone derivatives on the proliferative activity of eight human cancerous cell lines (EC9706, MCF-7, SGC-7901, HepG2, QBC939, HeLa, HCT116 and SW480) in addition to two normal human cell lines (colorectal FHC and liver HL7702) were evaluated using the standard MTT assay.
(§3) The human esophageal cancer cell line EC9706 was obtained from Cancer Hospital and Institute by Prof. Ming Rong Wang, Chinese Academy Medical of Sciences. The human colorectal carcinoma cell lines HCT116 and SW480, hepatoma cell line HepG2, cervical carcinoma cell line HeLa, breast cancer cell line MCF-7, gastric cancer cell line SGC-7901, cholangiocarcinoma cell line QBC939, normal fetal colon cell line FHC and liver cell line HL-7702 were obtained from the Cell Bank of the Shanghai Chinese Academy of Sciences. All cells were cultured in RPMI 1640 medium containing 100 U/mL penicillin and streptomycin and 10% fetal bovine serum and maintained at 37°C under a 5% CO2 atmosphere.
(§4) We analyzed the inhibitory effects of eight anthraquinone-amino acid derivatives on the proliferation of eight tumor cell lines and two normal cell lines in vitro using MTT assays. Cells were added to a 96-well plate with (5,000 cells per well in 100 µL RPMI-1640 medium). Cells were treated with different concentrations (10–100 μg/mL) of 8a–8h for 48 h and then incubated with 20 μL MTT (5 mg/mL) for another 4 h at 37°C. DMSO (150 μL) was then added to each well to dissolve the formazan crystals. The absorbance of each well was read at 490 nm on a microtiter plate ELISA reader. The mean values were obtained from a minimum of three parallel experiments. IC50 values were calculated.

HepG2 = assay: MTT cell proliferation assay, HepG2; format: cell-based; conditions: Homo sapiens, HepG2 liver cancer, 48 h
Protocol: as §2, §3, §4

HCT116 cells = assay: Annexin V/PI apoptosis assay by flow cytometry; format: cell-based, human; conditions: 24 h, control 0.06%
Protocol: Natural anthraquinones, such as rubiadin, physcion, emodin and soranjidiol, have been reported to induce apoptosis in tumor cells. Therefore, after detecting the effect of 8a on tumor cell proliferation, we investigated correlation between the anticancer activity of compound 8a and apoptosis. The effects of compound 8a treatment on HCT116 cell apoptosis were detected by flow cytometry following Annexin V/PI staining.
HCT116 cells were added to a 6-well plate (5 × 10^6/well). After attachment, the cells were treated with 8a for 24 h. Then, the cells were collected and centrifuged (10,000 g × 5 min). Cells were washed once with 1 mL of PBS. Cells were suspended in 500 μL binding buffer (containing 5 μL Annexin V-FITC and 1 μL propidium iodide [PI]) and incubated for 30 min in the dark. Apoptosis cells were detected by flow cytometry (FACSCalibur, BD, The United States).

HCT116 = assay: MTT cell proliferation assay, HCT116; format: cell-based, human; conditions: Homo sapiens, HCT-116, HCT116 colon cancer, 48 h
Protocol: as §2, §3, §4

EC9708 = assay: MTT cell proliferation assay, EC9706 (Table 1: EC9708); format: cell-based; conditions: Homo sapiens, EC9708 esophageal cancer, 48 h
Protocol: as §2, §3, §4

SGC-7901 = assay: MTT cell proliferation assay, SGC-7901; format: cell-based, human; conditions: Homo sapiens, SGC-7901, 48 h, SGC-7901 gastric cancer, read-out: IC50
Protocol: as §2, §3, §4

SW480 = assay: MTT cell proliferation assay, SW480; format: cell-based; conditions: Homo sapiens, SW480 colon cancer, 48 h
Protocol: as §2, §3, §4

IC50 (HepG2): 44.65 ± 0.03 µg/mL (≈ 109 µM)
IC50 (HCT116): 17.8 ± 0.03 µg/mL (≈ 43.4 µM)
IC50 (SGC-7901): 55.82 ± 0.16 µg/mL (≈ 136 µM)
IC50 (SW480): 31.09 ± 0.1 µg/mL (≈ 75.8 µM)
Compound: CC(C)CC(NC(=O)c1ccc2c(c1[N+](=O)[O-])C(=O)c1ccccc1C2=O)C(=O)O (stereo not drawn) [Compound 8a, N-[(9,10-dihydro-1-nitro-9,10-dioxo-2-anthracenyl)carbonyl-leucine]]
levels of phosphorylated JNK (JNK; 20 μg/mL, time course): gradually increased with time
total JNK levels (JNK; 20 μg/mL, time course): not altered
levels of p-JNK induced by 8a after NAC pre-treatment (JNK; 8a 20 μg/mL with NAC pre-treatment): reduced
Bax expression (Bcl-2, Bcl-xL and Bax; 0, 10, 20, 40 μg/mL, 24 h): increased
levels of Bcl-2 and Bcl-xL (Bcl-2, Bcl-xL and Bax; 0, 10, 20, 40 μg/mL, 24 h): gradually decreased
phosphorylation levels of Bcl-2 and Bcl-xL (Bcl-2, Bcl-xL and Bax; with increasing 8a concentration): increased
IC50 (QBC939): 43.13 ± 0.05 µg/mL (≈ 105 µM)
rate of apoptosis (HCT116 cells; 10 μg/mL): 11.24%
rate of apoptosis (HCT116 cells; 20 μg/mL): 18.97%
rate of apoptosis (HCT116 cells; 40 μg/mL): 26.94%
IC50 (EC9708): 44 ± 0.61 µg/mL (≈ 107 µM)
